Measured values as given in US20220277805A1, “GENETIC MUTATIONAL ANALYSIS” (BioSkryb Genomics, Inc., priority 2019, published 2022).
“Also recorded” adds a separate entry of the source.

What was measured:
mice = settings: limited sequencing of target genes; cited from earlier work
cord blood CD34+ cells = test: direct measurement of environmental mutagenicity (DMEM), single-cell PTA sequencing; type: cell-based, human; settings: for enrichment of cytosine variants in DNase I hypersensitivity sites: compared to DH sites of CD34+ cells, Roadmap Epigenomics Project, FIG. 12D, 12E
From the text: PTA was used to conduct a novel mutagenicity assay that provides a framework for performing high-resolution, genome wide human toxicogenomics studies. Previous studies such as the Ames test, relies on bacterial genetics to make measurements that are assumed to be representative of human cells while only providing limited information on the mutation number and patterns induced in each exposed cell. To overcome these limitations, a human mutagenesis system “direct measurement of environmental mutagenicity (DMEM)” was developed, wherein single human cells was exposed to an environmental compound, isolated as single cells, and subjected to single-cell sequencing to identify the new mutations induced in each cell.
Umbilical cord blood cells that express the stem/progenitor marker CD34 were exposed to increasing concentrations of the direct mutagen N-ethyl-N-nitrosourea (ENU).
ENU (CAS 759-73-9) and D-mannitol (CAS 69-65-8) were put into solution at their maximal solubility. Fresh anticoagulant-treated umbilical cord blood (CB) was obtained from St. Louis Cord Blood Bank. CB was diluted 1:2 with PBS and mononuclear cells (MNCs) were isolated by density gradient centrifugation on Ficoll-Paque Plus according to manufacturer's instructions. CB MNCs expressing CD34 were then immunomagnetically selected using the human CD34 microbead kit and magnetic cell sorting (MACS) system as per the manufacturer. Cell count and viability were assessed using the Luna FL cell counter. CB CD34+ cells were seeded at a density of 2.5×10^4 cells/mL in StemSpan SFEM supplemented with 1× CD34+ Expansion supplement, 100 units/mL of penicillin, and 100 ug/mL of streptomycin where they expanded for 96 hours before proceeding to mutagen exposure.
Expanded cord blood CD34+ cells were cultured in StemSpan SFEM supplemented with 1× CD34+ Expansion Supplement, 100 units/mL of penicillin, and 100 ug/mL of streptomycin. The cells were exposed to ENU at concentrations of 8.54, 85.4, and 854 uM, D-mannitol at 1152.8, and 11528 uM, or 0.9% sodium chloride (vehicle control) for 40 hours. Single-cell suspensions from drug-treated cells and vehicle control samples were harvested and stained for viability as described above. Single cell sorts were carried out as described above. PTA was performed and libraries were prepared using a simplified and improved protocol as per the general methods of the methods described herein, and Example 2.
Data acquired from cells in the DMEM experiments were trimmed using Trimmomatic, aligned to GRCh38 using BWA, and further processed using GATK 4.0.1 best practices without deviation from the recommended parameters. Genotyping was performed using HaplotypeCaller where joint genotypes were again filtered using standard parameters. […] The trinucleotide context of each SNV was determined by extracting the surrounding bases from the reference genome using bedtools. Mutation counts and context were visualized using ggplot2 and heatmap2 in R.
To determine whether mutations were enriched in DNase I hypersensitivity sites (DHS) in CD34+ cells, the proportion of SNVs in each sample that overlap with DHS sites from 10 CD34+ primary cell datasets produced by the Roadmap Epigenomics Project were calculated. DHS sites were extended by 2 nucleosomes, or 340 bases in either direction. Each DHS dataset was paired with a single cell sample where we determined the proportion of the human genome with at least 10× coverage in that cell which overlapped with a DHS, which was compared to the proportion of SNVs that were found within the covered DHS sites.

[1] = test system: clone harboring an activating KRAS mutation; test: leukemia cells in culture exposed to standard ALL chemotherapy drugs, bulk sequencing of clones; type: cell-based; settings: FIG. 7
From the text: Given such a massive population genetic diversity, it has been hypothesized that there are clones that are more resistant to treatment within a given patient. To test that hypothesis, the sample is placed in culture and the leukemia cells are exposed to increasing concentrations of standard ALL chemotherapy drugs. […] This approach also employed bulk sequencing of the treated samples. The use of single-cell DNA sequencing in some instances allows a determination of the diversity and clonotypes of the expanding populations.

For `CCN(N=O)C(N)=O` [ENU, N-ethyl-N-nitrosourea], the preferred base changes (mice) is listed as “T to A (A to T), T to C (A to G), and C to T (G to A)”, the “most common mutations (base changes)” value (cord blood CD34+ cells; FIG. 12B) is listed as “T to A (A to T), T to C (A to G), and C to T (G to A)” and the “enrichment in variant locations at DH sites” value (cord blood CD34+ cells; all ENU induced mutations, FIG. 12E) is listed as “No significant enrichment in variant locations at DH sites”. For the same molecule, the “enrichment of cytosine variants in DNase I hypersensitivity sites” value (cord blood CD34+ cells) was “no enrichment of cytosine variants in DNase I hypersensitivity sites was observed; also recorded: no enrichment of variants restricted to cytosines was observed in DH sites”, the “enrichment of cytosine variants in DNase I hypersensitivity sites” value (cord blood CD34+ cells; listed as N-ethyl-N-nitrosourea) was “No significant enrichment of cytosine variants was observed” and the “mutation number of each cell” value (cord blood CD34+ cells; increasing ENU concentrations 8.54, 85.4, 854 uM, 40 hours, FIG. 12A) was “dose-dependent increase in mutation number of each cell”. For the same molecule, the “enrichment of variants in genomic locations with specific annotations” value (cord blood CD34+ cells; relative to proportion of the genome each annotation comprises, FIG. 12F) was “No specific enrichment”.

With asparaginase the “response of the clone harboring an activating KRAS mutation” value (from here on “response”) ([1]; lowest dose) was “continued to expand”.

With `COc1cccc2c1C(=O)c1c(O)c3c(c(O)c1C2=O)C[C@@](O)(C(C)=O)C[C@@H]3O[C@H]1C[C@H](N)[C@H](O)[C@H](C)O1` [daunorubicin] the “response” value ([1]; in culture with drug) was “more sensitive; also recorded: killed”.

For `C[C@]12C=CC(=O)C=C1CC[C@@H]1[C@@H]2[C@@H](O)C[C@@]2(C)[C@H]1CC[C@]2(O)C(=O)CO` [prednisolone], the “response” value ([1]; in culture with drug) was “more sensitive; also recorded: killed”.
